One data set concerns the target T1, mouse DGAT1 (Mus musculus, UniProt Q9Z2A7).
T1 construct: made in house; host or cells: insect cells (High Five, Sf9, Sf21, etc.), baculovirus expression system (Invitrogen)
T1 sequence (Q9Z2A7 1-498): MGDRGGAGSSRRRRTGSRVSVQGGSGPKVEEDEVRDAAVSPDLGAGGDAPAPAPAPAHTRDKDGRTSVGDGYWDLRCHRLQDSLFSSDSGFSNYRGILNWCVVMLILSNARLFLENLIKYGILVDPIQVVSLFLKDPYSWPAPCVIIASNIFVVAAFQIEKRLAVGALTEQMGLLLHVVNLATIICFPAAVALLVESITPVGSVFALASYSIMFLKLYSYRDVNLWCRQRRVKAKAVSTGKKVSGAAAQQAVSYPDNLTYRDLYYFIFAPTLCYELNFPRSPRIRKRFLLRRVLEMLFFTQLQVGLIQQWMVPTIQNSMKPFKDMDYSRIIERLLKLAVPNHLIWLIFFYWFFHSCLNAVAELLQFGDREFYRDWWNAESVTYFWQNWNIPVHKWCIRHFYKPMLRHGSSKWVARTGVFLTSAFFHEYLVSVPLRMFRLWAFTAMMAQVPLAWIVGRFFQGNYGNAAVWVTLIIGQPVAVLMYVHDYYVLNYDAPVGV
The experiment in a line: DGAT1 inhibitory effect test (microsome fraction, [14C]-oleoyl-CoA, triglyceride radioactivity by TLC). The data set is classed as biochemical. The note with it: 0.5 h; concentration of the test compound 0.1 μg/ml; mouse DGAT1 microsomes, 23° C., 30 minutes; read-out: Inhibitory ratio. The method, boiled down: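 Baculovirus-expressed mouse DGAT1 insect-cell microsomes (10 μg) were incubated 30 min at 23 °C, pH 8.0, with 0.5 mM 1,2-dioleoyl-sn-glycerol, 30 μM [14C]-oleoyl-CoA and 0.5% Triton X-100. [14C]-triglyceride was quantified after heptane extraction and TLC. Percent inhibition was taken against vehicle control, with 0-min background subtracted.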

Molecule `O=C(Nc1ccc(C2CCN(C(=O)Nc3ccc(OCCO)cc3Cl)CC2)cc1)Nc1ccccc1F` [Example 263, 4-{4-[3-(2-fluoro-phenyl)-ureido]-phenyl}-piperidine-1-carboxylic acid [2-chloro-4-(2-hydroxy-ethoxy)-phenyl]-amide] returned a melting point of 166 to 171 °C. Further, the inhibition at 0.1 µg/mL on mouse DGAT1 is at least 50%.

`CCOc1cccc(NC(=O)Nc2ccc(C3CCN(C(=O)Nc4ccc(OCCO)cc4Cl)CC3)cc2)c1` [Example 264, 4-{4-[3-(3-ethoxy-phenyl)-ureido]-phenyl}-piperidine-1-carboxylic acid [2-chloro-4-(2-hydroxy-ethoxy)-phenyl]-amide] registered a melting point of 129 to 134 °C. At mouse DGAT1, the inhibition at 0.1 µg/mL was at least 50%.

Molecule `COc1ccccc1NC(=O)Nc1ccc2c(c1)CCN(C(=O)Nc1ccc(OCCO)cc1Cl)C2` [Example 265, 6-[3-(2-methoxy-phenyl)-ureido]-3,4-dihydro-1 H-isoquinoline-2-carboxylic acid [2-chloro-4-(2-hydroxy-ethoxy)-phenyl]-amide] returned a melting point of 130 to 135 °C. For the same molecule, the inhibition at 0.1 µg/mL on mouse DGAT1 is at least 50%.

Molecule `COc1cc(NC(=O)Nc2ccc3c(c2)CCN(C(=O)Nc2ccc(OCCO)cc2Cl)C3)cc(OC)c1` [Example 266, 6-[3-(3,5-dimethoxy-phenyl)-ureido]-3,4-dihydro-1H-isoquinoline-2-carboxylic acid [2-chloro-4-(2-hydroxy-ethoxy)-phenyl]-amide] registered a melting point of 105 to 110 °C. Besides, the inhibition at 0.1 µg/mL at mouse DGAT1 was at least 50%.

The molecule `O=C(Nc1ccc2c(c1)CCN(C(=O)Nc1ccc(OCCO)cc1Cl)C2)Nc1ccccc1F` [Example 267, 6-[3-(2-fluoro-phenyl)-ureido]-3,4-dihydro-1H-isoquinoline-2-carboxylic acid [2-chloro-4-(2-hydroxy-ethoxy)-phenyl]-amide] returned a melting point of 183 to 186 °C. The inhibition at 0.1 µg/mL at mouse DGAT1 is at least 50%.

As for `COc1ccc(C)cc1NC(=O)Nc1ccc(N2CCN(C(=O)Nc3ccc(OCCO)cc3Cl)CC2)nc1` [Example 268, 4-{5-[3-(2-methoxy-5-methyl-phenyl)-ureido]-pyridin-2-yl}-piperazine-1-carboxylic acid [2-chloro-4-(2-hydroxy-ethoxy)-phenyl]-amide], the melting point was in the range of 196 to 197 °C. Besides, on mouse DGAT1, the inhibition at 0.1 µg/mL is at least 50%.

Regarding `COc1ccccc1NC(=O)Nc1ccc(N2CCN(C(=O)Nc3ccc(OCCO)cc3Cl)CC2)c(Cl)c1` [Example 269, 4-{2-chloro-4-[3-(2-methoxy-phenyl)-ureido]-phenyl}-piperazine-1-carboxylic acid [2-chloro-4-(2-hydroxy-ethoxy)-phenyl]-amide], the melting point fell in the range of 173 to 175 °C. Besides, on mouse DGAT1, the inhibition at 0.1 µg/mL is at least 50%.

In the case of `COc1cccnc1NC(=O)Nc1ccc(N2CCN(C(=O)Nc3ccc(OCCO)cc3Cl)CC2)cc1` [Example 270, 4-{4-[3-(3-methoxy-pyridin-2-yl)-ureido]-phenyl}-piperazine-1-carboxylic acid [2-chloro-4-(2-hydroxy-ethoxy)-phenyl]-amide], the melting point fell in the range of 215 to 216 °C. In addition, the inhibition at 0.1 µg/mL at mouse DGAT1 is at least 50%.

`Cc1nc(NC(=O)Nc2ccc(N3CCN(C(=O)Nc4ccc(OCCO)cc4Cl)CC3)nc2)sc1C` [Example 271, 4-{5-[3-(4,5-dimethyl-thiazol-2-yl)-ureido]-pyridin-2-yl}-piperazine-1-carboxylic acid [2-chloro-4-(2-hydroxy-ethoxy)-phenyl]-amide]: the melting point lay in the range of 184 to 185 °C. The inhibition at 0.1 µg/mL on mouse DGAT1 is at least 50%.

Take `Cc1nc(NC(=O)Nc2ccc(N3CCN(C(=O)Nc4ccc(OCCO)cc4Cl)CC3)cc2)sc1C` [Example 272, 4-{4-[3-(4,5-dimethyl-thiazol-2-yl)-ureido]-phenyl}-piperazine-1-carboxylic acid [2-chloro-4-(2-hydroxy-ethoxy)-phenyl]-amide]: the melting point lay within 186 to 187 °C. Further, the inhibition at 0.1 µg/mL at mouse DGAT1 was at least 50%.

In turn, `COc1ccc(C)cc1NC(=O)Nc1ccc(C2=CCN(C(=O)Nc3cc(OCCO)ccc3Cl)CC2)cc1` [Example 273, 4-{4-[3-(2-methoxy-5-methyl-phenyl)-ureido]-phenyl}-3,6-dihydro-2H-pyridine-1-carboxylic acid [2-chloro-5-(2-hydroxy-ethoxy)-phenyl]-amide] came in with a melting point of 139 to 142 °C. Moreover, at mouse DGAT1, the inhibition at 0.1 µg/mL was at least 50%.

`COc1ccc(C)cc1NC(=O)Nc1ccc(C2CCN(C(=O)Nc3cc(OCCO)ccc3Cl)CC2)cc1` [Example 274, 4-{4-[3-(2-methoxy-5-methyl-phenyl)-ureido]-phenyl}-piperidine-1-carboxylic acid [2-chloro-5-(2-hydroxy-ethoxy)-phenyl]-amide]: the melting point is 202 to 205 °C. Moreover, at mouse DGAT1, the inhibition at 0.1 µg/mL was at least 50%.

In turn, `COc1ccc(C)cc1NC(=O)Nc1ccc(N2CCN(C(=O)Nc3ccc(OCC(O)CO)cc3C(F)(F)F)CC2)cc1` (centres unmarked) [Example 275, 4-{4-[3-(2-methoxy-5-methyl-phenyl)-ureido]-phenyl}-piperazine-1-carboxylic acid [4-(2,3-dihydroxy-propoxy)-2-trifluoromethyl-phenyl]-amide] displayed a melting point of 187 to 190 °C. The inhibition at 0.1 µg/mL at mouse DGAT1 is at least 50%.

`COc1ccc(C)cc1NC(=O)Nc1ccc(N2CCN(C(=O)Nc3ccc(OCC(O)CO)cc3C)CC2)cc1` (centres unmarked) [Example 276, 4-{4-[3-(2-methoxy-5-methyl-phenyl)-ureido]-phenyl}-piperazine-1-carboxylic acid [4-(2,3-dihydroxy-propoxy)-2-methyl-phenyl]-amide] showed a melting point of 148 to 150 °C. Moreover, at mouse DGAT1, the inhibition at 0.1 µg/mL is at least 50%.

Molecule `COc1ccc(C)cc1NC(=O)Nc1ccc(N2CCN(C(=O)Nc3ccc(OCC(O)CO)cc3Cl)CC2)cc1` (centres unmarked) [Example 277, 4-{4-[3-(2-methoxy-5-methyl-phenyl)-ureido]-phenyl}-piperazine-1-carboxylic acid [2-chloro-4-(2,3-dihydroxy-propoxy)-phenyl]-amide] displayed a melting point of 134 to 136 °C. Also, at mouse DGAT1, the inhibition at 0.1 µg/mL is at least 50%.

In turn, `O=C(Nc1ccc(N2CCN(C(=O)Nc3ccc(OCC(O)CO)cc3Cl)CC2)cc1)Nc1ccccc1F` (centres unmarked) [Example 278, 4-{4-[3-(2-fluoro-phenyl)-ureido]-phenyl}-piperazine-1-carboxylic acid [2-chloro-4-(2,3-dihydroxy-propoxy)-phenyl]-amide] displayed a melting point of 189 to 190 °C. At mouse DGAT1, the inhibition at 0.1 µg/mL is at least 50%.

Take `COc1ccc(F)cc1NC(=O)Nc1ccc(N2CCN(C(=O)Nc3ccc(OCC(O)CO)cc3C(F)(F)F)CC2)nc1` (centres unmarked) [Example 279, 4-{5-[3-(5-fluoro-2-methoxy-phenyl)-ureido]-pyridin-2-yl}-piperazine-1-carboxylic acid [4-(2,3-dihydroxy-propoxy)-2-trifluoromethyl-phenyl]-amide]: the melting point stood at 195 °C. Further, the inhibition at 0.1 µg/mL at mouse DGAT1 was at least 50%.

In turn, `COc1ccc(C)cc1NC(=O)Nc1ccc2c(c1)CCN(C(=O)Nc1ccc(OCC(O)CO)cc1Cl)C2` (centres unmarked) [Example 280, 6-[3-(2-methoxy-5-methyl-phenyl)-ureido]-3,4-dihydro-1H-isoquinoline-2-carboxylic acid [2-chloro-4-(2,3-dihydroxy-propoxy)-phenyl]-amide] displayed a melting point of 119 to 121 °C. Besides, the inhibition at 0.1 µg/mL at mouse DGAT1 is at least 50%.

As to `COc1ccc(C)cc1NC(=O)Nc1ccc(C2=CCN(C(=O)Nc3ccc(OCC(O)CO)cc3Cl)CC2)cc1` (centres unmarked) [Example 281, 4-{4-[3-(2-methoxy-5-methyl-phenyl)-ureido]-phenyl}-3,6-dihydro-2H-pyridine-1-carboxylic acid [2-chloro-4-(2,3-dihydroxy-propoxy)-phenyl]-amide], the melting point fell in the range of 125 to 128 °C. Moreover, the inhibition at 0.1 µg/mL at mouse DGAT1 was at least 50%.

Turning to `COc1ccc(C)cc1NC(=O)Nc1ccc(C2=CCN(C(=O)Nc3ccc(OCC(O)CO)cc3C(F)(F)F)CC2)cc1` (centres unmarked) [Example 282, 4-{4-[3-(2-methoxy-5-methyl-phenyl)-ureido]-phenyl}-3,6-dihydro-2H-pyridine-1-carboxylic acid [4-(2,3-dihydroxy-propoxy)-2-trifluoromethyl-phenyl]-amide], the melting point lay in the range of 135 to 137 °C. For the same molecule, the inhibition at 0.1 µg/mL on mouse DGAT1 was at least 50%.

The molecule `COc1ccc(C)cc1NC(=O)Nc1ccc(C2CCN(C(=O)Nc3ccc(OCC(O)CO)cc3Cl)CC2)cc1` (centres unmarked) [Example 283, 4-{4-[3-(2-methoxy-5-methyl-phenyl)-ureido]-phenyl}-piperidine-1-carboxylic acid [2-chloro-4-(2,3-dihydroxy-propoxy)-phenyl]-amide] returned a melting point of 179 to 181 °C. On mouse DGAT1, the inhibition at 0.1 µg/mL is at least 50%.

With `COc1ccccc1NC(=O)Nc1ccc2c(c1)CCN(C(=O)Nc1ccc(OCC(O)CO)cc1Cl)C2` (centres unmarked) [Example 284, 6-[3-(2-methoxy-phenyl)-ureido]-3,4-dihydro-1H-isoquinoline-2-carboxylic acid [2-chloro-4-(2,3-dihydroxy-propoxy)-phenyl]-amide], the melting point was in the range of 107 to 111 °C. Further, the inhibition at 0.1 µg/mL at mouse DGAT1 is at least 50%.

Broadly, the melting point is the temperature of the solid-liquid transition.

The values above are taken from patent US20070249620A1, “Urea Derivative” (priority 2004, published 2007).
